# According to patent EP2931723B1, “NEW BICYCLIC COMPOUNDS AND THEIR USE AS ANTIBACTERIAL AGENTS AND -LACTAMASE INHIBITORS” (Fedora Pharmaceuticals Inc., priority 2012, dated 2014):
# Columns and labels:
# Test in all cases: MIC, antibacterial and synergistic activity
# Assay type in all cases: cell-based
# A. baumanii JMI 2659 = A. baumanii JMI 2659 (Ges-14 (Cpase))
# K. pneumo JMI 2697 = K. pneumo JMI 2697 (IMP-4 (Cpase))
# Experimental: (§1) In the Tables 10 - 12, compounds herein disclosed were tested in combination with various antibiotics against metallo β-lactamase producing bacteria.
# K. pneumo JMI 2693 = K. pneumo JMI 2693 (NDM-1 (Cpase))
# Experimental: as §1
# E. coli JMI 2692 = E. coli JMI 2692 (NDM-1, TEM-1, CTX-M-15)
# Experimental: as §1
# K. pneumo JMI 4106 = K. pneumo JMI 4106 (KPC-3, TEM-1, SHV-12, SHV-141)
# K. pneumo JMI 2681 = K. pneumo JMI 2681 (Oxa-48 (Cpase))
# E. coli JMI 10768 [1] = conditions: E. coli JMI 10768 (CTX-M15 (Weak ESBL)); Meropenem + inhibitor at 4 µg/mL
# E. coli ATCC 25922 = E. coli ATCC 25922 (Wt)
# K. pneumo JMI 4088 = K. pneumo JMI 4088 (KPC-3 (Cpase)); substance alone
# E. coli JMI 10770 = conditions: Escherichia coli, JMI10770; E. coli JMI 10770 (CTX-M15 (Hyper ESBL)); substance alone
# P. aerug JMI 2686 [2] = conditions: P. aerug JMI 2686 (KPC-2 (Cpase)); substance alone
# E. coli JMI 11103 = test system: E. coli JMI 11103
# E.coli JMI 4103 = E.coli JMI 4103 (KPC-2, Tem-1, CMY-Type)
# P. aerug JMI 149 = P. aerug JMI 149 (Bla+++D+)
# E. coli JMI 10767 = E. coli JMI 10767 (Wt)
# K. pneumo JMI 2674 = K. pneumo JMI 2674 (CTX-M15 (ESBL)); substance alone
# K. pneumo JMI 2673 = K. pneumo JMI 2673 (CTX-M14 (ESBL))
# Experimental: (§2) In the Tables 10 - 12, compounds herein disclosed were tested in combination with various antibiotics against metallo β-lactamase producing bacteria. Table 3: Synergy of the inhibitor Ex. 1 (4 µg/mL) in combination with antibiotics
# P. aerug JMI 2686 [3] = conditions: P. aerug JMI 2686 (KPC-2 (Cpase))
# Experimental: as §2
# E. coli JMI 10768 [4] = conditions: E. coli JMI 10768 (CTX-M15 (Weak ESBL))
# Experimental: as §2
# K. pneumo JMI 2699 = K. pneumo JMI 2699 (VIM-1, CTX-M3)
# Experimental: as §2
# E. cloacae JMI 36 = E. cloacae JMI 36 (P99)
# K.pneumo JMI 4109 = K.pneumo JMI 4109 (SHV-1, SHV-12); substance alone
# [5] = Aztreonam + inhibitor at 4 µg/mL
# [6] = Ceftazidime + inhibitor at 4 µg/mL
# [7] = Meropenem + inhibitor at 4 µg/mL
compound,measurement,setting,value
"O=C(NNC(=O)[C@H]1CC[C@H]2CN1C(=O)N2OS(=O)(=O)O)C1CC1 (stereo in doubt) [Ex. 7, (2R,5S)-N'-(cyclopropylcarbonyl)-7-oxo-6-(sulfooxy)-1,6-diazabicyclo[3.2.1]octane-2-carbohydrazide]",MIC Aztreonam + inhibitor,A. baumanii JMI 2659; [5],>4 µg/mL
same,MIC Ceftazidime + inhibitor,A. baumanii JMI 2659; [6],>16 µg/mL
same,MIC Meropenem + inhibitor,A. baumanii JMI 2659; [7],>2 µg/mL
same,MIC,"A. baumanii JMI 2659; Acinetobacter baumannii, JMI2659, substance alone, read-out: MIC",> 16 µg/mL
same,MIC Aztreonam + inhibitor,K. pneumo JMI 2697; [5],≤0.062 µg/mL
same,MIC Ceftazidime + inhibitor,K. pneumo JMI 2697; [6],16 µg/mL
same,MIC Meropenem + inhibitor,K. pneumo JMI 2697; [7],2 µg/mL
same,MIC,K. pneumo JMI 2697; substance alone,> 16 µg/mL
same,MIC Aztreonam + inhibitor,K. pneumo JMI 2693; [5],1 µg/mL
same,MIC Ceftazidime + inhibitor,K. pneumo JMI 2693; [6],2 µg/mL
same,MIC Meropenem + inhibitor,K. pneumo JMI 2693; [7],0.25 µg/mL
same,MIC,K. pneumo JMI 2693; substance alone,> 16 µg/mL
same,MIC Aztreonam + inhibitor,E. coli JMI 2692; [5],≤0.062 µg/mL
same,MIC Ceftazidime + inhibitor,E. coli JMI 2692; [6],≤0.25 µg/mL
same,MIC Meropenem + inhibitor,E. coli JMI 2692; [7],0.5 µg/mL
same,MIC,"E. coli JMI 2692; Escherichia coli, JMI2692, substance alone, read-out: MIC",8 µg/mL
same,MIC Aztreonam + inhibitor,K. pneumo JMI 4106; [5],0.125 µg/mL
same,MIC Ceftazidime + inhibitor,K. pneumo JMI 4106; [6],≤0.25 µg/mL
same,MIC Meropenem + inhibitor,K. pneumo JMI 4106; [7],≤0.0312 µg/mL
same,MIC,"K. pneumo JMI 4106; substance alone, read-out: MIC",16 µg/mL
same,MIC Aztreonam + inhibitor,K. pneumo JMI 2681; [5],0.25 µg/mL
same,MIC Ceftazidime + inhibitor,K. pneumo JMI 2681; [6],0.5 µg/mL
same,MIC Meropenem + inhibitor,K. pneumo JMI 2681; [7],0.25 µg/mL
same,MIC,"K. pneumo JMI 2681; substance alone, read-out: MIC",> 16 µg/mL
same,MIC Meropenem + inhibitor,E. coli JMI 10768 [1],≤0.0312 µg/mL
same,MIC Aztreonam + inhibitor,E. coli ATCC 25922; [5],≤0.0625 µg/mL
same,MIC Ceftazidime + inhibitor,E. coli ATCC 25922; [6],≤0.25 µg/mL
same,MIC Meropenem + inhibitor,E. coli ATCC 25922; [7],≤0.0312 µg/mL
same,MIC,"E. coli ATCC 25922; Escherichia coli, ATCC25922, substance alone",> 16 µg/mL
same,MIC,K. pneumo JMI 4088,> 16 µg/mL
same,MIC,E. coli JMI 10770,8 µg/mL
same,MIC,P. aerug JMI 2686 [2],> 16 µg/mL
same,MIC Aztreonam + inhibitor,"E. coli JMI 11103; E. coli JMI 11103 (CTX-M15 (Intermediate ESBL)), Aztreonam + inhibitor at 4 µg/mL",≤0.062 µg/mL
same,MIC Ceftazidime + inhibitor,"E. coli JMI 11103; E. coli JMI 11103 (CTX-M15 (Intermediate ESBL)), Ceftazidime + inhibitor at 4 µg/mL",≤0.25 µg/mL
same,MIC Meropenem + inhibitor,"E. coli JMI 11103; E. coli JMI 11103 (CTX-M15 (Intermediate ESBL)), Meropenem + inhibitor at 4 µg/mL",≤0.0312 µg/mL
same,MIC,"E. coli JMI 11103; Escherichia coli, JMI11103, E. coli JMI 11103 (CTX-M15 (Intermediate ESBL)), substance alone",16 µg/mL
same,MIC Aztreonam + inhibitor,E.coli JMI 4103; [5],≤0.062 µg/mL
same,MIC Ceftazidime + inhibitor,E.coli JMI 4103; [6],≤0.25 µg/mL
same,MIC Meropenem + inhibitor,E.coli JMI 4103; [7],≤0.0312 µg/mL
same,MIC,"E.coli JMI 4103; Escherichia coli, JMI4103, substance alone",2 µg/mL
same,MIC Aztreonam + inhibitor,P. aerug JMI 149; [5],>4 µg/mL
same,MIC Ceftazidime + inhibitor,P. aerug JMI 149; [6],>16 µg/mL
same,MIC Meropenem + inhibitor,P. aerug JMI 149; [7],>2 µg/mL
same,MIC,"P. aerug JMI 149; substance alone, read-out: MIC",> 16 µg/mL
same,MIC Meropenem + inhibitor,E. coli JMI 10767; [7],≤0.0312 µg/mL
same,MIC,"E. coli JMI 10767; Escherichia coli, JMI10767, substance alone",8 µg/mL
same,MIC,K. pneumo JMI 2674,> 16 µg/mL
same,MIC Aztreonam + inhibitor,K. pneumo JMI 2673; [5],≤0.062 µg/mL
same,MIC Ceftazidime + inhibitor,K. pneumo JMI 2673; [6],≤0.25 µg/mL
same,MIC Meropenem + inhibitor,K. pneumo JMI 2673; [7],≤0.0312 µg/mL
same,MIC Aztreonam + inhibitor,P. aerug JMI 2686 [3]; [5],>4 µg/mL
same,MIC Ceftazidime + inhibitor,P. aerug JMI 2686 [3]; [6],>16 µg/mL
same,MIC Meropenem + inhibitor,P. aerug JMI 2686 [3]; [7],>2 µg/mL
same,MIC Aztreonam + inhibitor,E. coli JMI 10768 [4]; [5],≤0.062 µg/mL
same,MIC Ceftazidime + inhibitor,E. coli JMI 10768 [4]; [6],2 µg/mL
same,MIC,"E. coli JMI 10768 [4]; Escherichia coli, JMI10768, substance alone",16 µg/mL
same,MIC Aztreonam + inhibitor,K. pneumo JMI 2699; [5],≤0.062 µg/mL
same,MIC Ceftazidime + inhibitor,K. pneumo JMI 2699; [6],0.5 µg/mL
same,MIC Meropenem + inhibitor,K. pneumo JMI 2699; [7],0.5 µg/mL
same,MIC,"K. pneumo JMI 2699; substance alone, read-out: MIC",16 µg/mL
same,MIC Aztreonam + inhibitor,E. cloacae JMI 36; [5],0.125 µg/mL
same,MIC Ceftazidime + inhibitor,E. cloacae JMI 36; [6],0.5 µg/mL
same,MIC Meropenem + inhibitor,E. cloacae JMI 36; [7],0.125 µg/mL
same,MIC,"E. cloacae JMI 36; Enterobacter cloacae, JMI36, substance alone, read-out: MIC",> 16 µg/mL
same,MIC,K.pneumo JMI 4109,2 µg/mL
